Laboratory results: patent US8530453B2, “Compounds and methods for the treatment of pain and other diseases” (Aquilus Pharmaceuticals, Inc., priority 2009, dated 2013)

Experiments:
[1] = system: spinal nerve ligation (SNL) mouse model, mechanical allodynia; test: Intrathecal (i.t.) administration in the SNL mouse model of pain, von Frey tactile allodynia test; assay type: in vivo; conditions: for 50% paw withdrawal threshold, mean, Day (-2) Pre-operative Baseline: group baseline prior to SNL injury, before treatment, FVB male mice
From the text: (§1) To measure the neuropathic pain inhibiting affects of the MMP inhibitors of the present invention, the spinal nerve ligation (SNL) mouse model was run on a select number of compounds. This model which began with the work of Bennet and coworkers (Bennet, G. J. et al. Pain, 33, (1988), 87-107) and was optimized by Kim and Chung (Kim, S. H.; Chung, J. M. Pain, 50, (1992), 355-363) entails first, under magnification, the removal of one-third of the transverse process and then identifying and then dissecting free the L5 spinal nerve from the adjacent L4 spinal nerve in the mouse. The L5 spinal nerve is then tightly ligated using 6.0 silk suture. The nerve injury leads to hyperalgesia which manifests itself by enhanced responses to mechanical, heat and/or cooling stimuli. In this case, mechanical hyperalgesia is tested via Von Frey monofilaments in which filaments of varying thicknesses and bending force are individually applied to the plantar surface of the foot of the mouse. The threshold force necessary for paw withdrawal decreases dramatically after the nerve surgery. Potent pain inhibitors will reverse this affect resulting in greater force needing to be applied to cause the rodent paw to withdrawal.
Following preoperative baseline (Day −2) paw threshold measurement, FVB male mice were subjected to SNL injury (Day −1). […] Over the course of the study, paw withdrawal threshold of these animals was measured in response to mechanical stimulation using the von Frey Monofilament Test. […]
(§2) Tactile Allodynia Test. Mechanical allodynia was measured using the calibrated von Frey filaments (Semmes-Weinstein monofilaments; Stoelting, Wood Dale, Ill., U.S.A.). […] The Fifty percent paw withdrawal threshold response was determined by sequentially increasing or decreasing the stimulus strength according to the “up-down method” of Dixon (Annual Review Pharmacology Toxicology, 20, (1980), 441-462). […]

[2] = In-vitro mouse microsomal stability; assay type: in vitro ADME; conditions: compound 1 microMolar, at T = 60 minutes; for % Mean Remaining Parent with NADPH (%): mouse microsomes 0.3 mg/mL, 37 C; for % Mean Remaining Parent without NADPH (%): mouse microsomes, control omitting NADPH
Method: Human and mouse microsomal stability was determined for select compounds following the method of Houston (Houston, J B; Biochem. Pharmacol. 47, (1994), 1469).
1 μM concentration of compound and seperate human and mouse microsomes (0.3 mg/mL, BD bioscience) were used in the in-vitro assay. To ensure proper energy supply for microsomal degradation of compound, an energy regenerating system comprised of 100 mM potassium phosphate, 2 mM NADPH, 3 mM MgCl2, pH=7.4. and the microsomal protein is added to each sample and the resulting suspension is then incubated in duplicate for 60 min at 37° C. in a rotary shaker. A control is run for each test agent in duplicate omitting NADPH to detect NADPH-free degradation. At T=0 and T=60 min., an aliquot is removed from each experimental and control reaction and then mixed with an equal volume of ice-cold Stop Solution (consisting of 0.3% acetic acid in acetonitrile containing haloperidol and diclofenac as internal standards). Stopped reactions are then incubated for at least ten minutes at −20° C., and an additional volume of water is then be added. The samples are then centrifuged to remove precipitated protein, and the supernatants are then analyzed by LC-MS/MS to determine the percentage of compound remaining. The LC-MS/MS system used was an Agilent 6410 mass spectrometer coupled with an Agilent 1200 HPLC and a CTC PAL chilled autosampler, all controlled by MassHunter software (Agilent), or an ABI2000 mass spectrometer coupled with an Agilent 1100 HPLC and a CTC PAL chilled autosampler, all controlled by Analyst software (ABI). After separation on a C18 reverse phase HPLC column (Agilent, Waters, or equivalent) using an acetonitrile-water gradient system, peaks were analyzed by mass spectrometry (MS) using ESI ionization in MRM mode.

[3] = system: spinal nerve ligation (SNL) mouse model, mechanical allodynia; test: Intraperitoneal (i.p.) administration in the SNL mouse model of pain, von Frey tactile allodynia test; assay type: in vivo
From the text: as §1, with “The threshold force necessary for paw withdrawal decreases dramatically after the nerve surgery. Potent pain inhibitors will reverse this affect resulting in greater force needing to be applied to cause the rodent paw to withdrawal.” left out
as §2

[4] = molecular target: Catalytic domain of MMP-9 (human recombinant) (Homo sapiens, UniProt P14780); test: biochemical; conditions: read-out: Average Percent Inhibition (MMP-9)
Sequence of Catalytic domain of MMP-9 (human recombinant) (P14780 107-444 limits assumed): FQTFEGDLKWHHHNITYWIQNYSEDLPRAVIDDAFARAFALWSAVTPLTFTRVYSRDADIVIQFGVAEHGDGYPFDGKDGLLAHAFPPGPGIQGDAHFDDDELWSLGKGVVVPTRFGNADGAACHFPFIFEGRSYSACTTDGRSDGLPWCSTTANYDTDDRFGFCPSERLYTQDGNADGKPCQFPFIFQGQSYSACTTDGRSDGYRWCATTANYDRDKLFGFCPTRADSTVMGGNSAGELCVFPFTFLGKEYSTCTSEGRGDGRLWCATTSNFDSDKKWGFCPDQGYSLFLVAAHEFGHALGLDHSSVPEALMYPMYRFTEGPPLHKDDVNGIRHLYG
Method: A concentration of MMP inhibitor of the present invention was tested (1 microMolar) in duplicate runs. […] The mixture of enzyme and compound in assay buffer was then thoroughly mixed and incubated for 60 minutes at 37° C. Upon the completion of incubation, the assay was started by the addition of 10 μM of fluorescent substrate DNP-Pro-Cha-Gly-Cys(Me)-His-Ala-Lys(n-Me-Abz)-NH2 [SEQ ID NO: 1][Cha=β-cyclohexylalanyl; Abz=2-aminobenzoyl(anthraniloyl)] (Kd˜7 microMolar). The fluorescent product, DnpPChaG, was then measured at excitation of 365 nm and emission 450 nm by an automatic plate multireader at 37° C.

mechanical nociception = conditions: in vivo; cited from earlier work
humans = conditions: clinical; cited from earlier work
[5] = system: chronic constriction injury (CCI)-mouse model; conditions: epineural daily injections, after the third day; cited from earlier work

## Cc1ccc(C#Cc2ccc(S(=O)(=O)N[C@H](Cc3c[nH]c4ccccc34)C(=O)O)s2)cc1 [Compound 5, (R)-3-(1H-Indol-3-yl)-2-(5-p-tolylethynyl-thiophene-2-sulfonylamino)-propionic acid]
[1]
  50% paw withdrawal threshold, mean, Day (-2) Pre-operative Baseline: 1.265 g
[2]
  % Mean Remaining Parent with NADPH (%): 83%
  % Mean Remaining Parent without NADPH (%): 88%

## [2H]C([2H])([2H])c1ccc(C#Cc2ccc(S(=O)(=O)N[C@H](Cc3c[nH]c4ccccc34)C(=O)O)s2)cc1 [Compound 10, (R)-3-(1H-Indol-3-yl)-2-[5-(4-trideuteromethyl-phenylethynyl)-thiophene-2-sulfonylamino]-propionic acid-(D3, 98%)]
[1]
  50% paw withdrawal threshold, mean, Day (-2) Pre-operative Baseline: 1.268 g
[1]; i.t., as compared to vehicle and compound #5
  Reversal of allodynia (in words): almost complete reversal of allodynia
[3]; i.p. approx. 3.3 mg/Kg daily
  Reversal of mechanical allodynia (in words): complete reversal of mechanical alodynia by day 5
[3]; i.p., 48 hours (day 6) from the last injection (day 4)
  Duration of effect after last injection (in words): rather prolonged effect
[4]
  inhibition at 1 µM: 78%
[2]
  % Mean Remaining Parent with NADPH (%): 85%
  % Mean Remaining Parent without NADPH (%): 91%

## CNC(=O)[C@H](Cc1c[nH]c2ccccc12)NC(=O)[C@@H](CC(=O)NO)CC(C)C [GM6001]
Mechanical nociception
  Effect on mechanical nociception (in words): found to attenuate mechanical nociception

## CNC(=O)[C@@H](NC(=O)[C@H](CC(C)C)[C@H](O)C(=O)NO)C(C)(C)C [Marimastat]
humans
  Toxicities in humans (in words): time-dependent and dose-dependent musculoskeletal toxicities (arthralgia, myalgia, tendinitis)

## CC(C)C[C@H](CC(=O)NO)C(=O)N[C@@H](Cc1ccc2ccccc2c1)C(=O)N[C@@H](C)C(N)=O [TAPI-0]
[5]
  Effect on mechanical allodynia and thermal hyperalgesia (in words): able to block both mechanical allodynia and thermal hyperalgesia
